Measurements from patent US20210330611A1, “THERAPY FOR NEUROLOGICAL DISEASES/DISORDERS” (priority 2020, published 2021).
Counter-ions that a name gives are not always drawn. Like-named read-outs stand apart in the source and are kept apart here.

Key:
[1] = test system: fibrin-induced microglia activation; experiment: Image-based assay of fibrin-induced microglia activation (HTS and dose response); format: cell-based, rat; conditions: primary microglia HTS; for inhibition at 10 µM: Rattus norvegicus, Microglia, read-out: Fibrin % inhibition
[2] = test system: primary rat microglia; experiment: Cell toxicity (dead cells, size <150 μm2) in LPS assay; conditions: primary microglia HTS
[3] = test system: LPS-induced microglia activation; experiment: Image-based assay of LPS-induced microglia activation (HTS and dose response); format: cell-based, rat; conditions: primary microglia HTS; for inhibition at 10 µM: Rattus norvegicus, Microglia, read-out: LPS % inhibition
[4] = test system: fibrin- and LPS-induced microglia activation; experiment: cells; format: cell-based, rat
[5] = test system: primary rat microglia; experiment: Cell toxicity (dead cells, size <150 μm2) in coated fibrin (cFib) assay; conditions: primary microglia HTS;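 also: share of dead cells sized under 150 µm2 at 10 µM in fibrin-stimulated microglia HTS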
[6] = 10 μM, fibrin-stimulated, cell size >800 μm^2 as marker of activation
[7] = 10 μM, LPS assay, cell size <150 μm^2 as marker of toxicity
[8] = 10 μM, LPS-stimulated, cell size >800 μm^2 as marker of activation
[9] = HTS of 1907 compounds, quadrant by fibrin and LPS inhibition
[10] = 10 μM, fibrin assay, cell size <150 μm^2 as marker of toxicity

Row | Compound | inhibition at 10 µM [1, 6] | LPS % cell toxicity [2, 7] | inhibition at 10 µM [3, 8] | Quadrant (FIG. 5b) [4, 9] | Fibrin % cell toxicity [5, 10] | inhibition at 10 µM ([1]; fibrin stimulation, increased cell size (>800 μm^2) as marker of activation) | LPS % cell toxicity ([2]; LPS stimulation, decreased size (<150 μm^2) as marker of toxicity) | inhibition at 10 µM ([3]; 48 h, LPS stimulation, increased cell size (>800 μm^2) as marker of activation) | Quadrant (FIG. 5b) ([4]; quadrant by fibrin and LPS inhibition in HTS of 1907 compounds) | Fibrin % cell toxicity ([5]; fibrin stimulation, decreased size (<150 μm^2) as marker of toxicity) | Fibrin % inhibition [1, 6] | LPS % inhibition [3, 8]
1 | CCN(CC)CCNC(=O)c1cc(S(C)(=O)=O)ccc1OC [Tiapride] | -18% | 0% | 6% | Q4 | 0% | – | – | – | – | – | – | –
2 | C#C[C@]1(O)CC[C@H]2[C@@H]3[C@H](C)CC4=C(CCC(=O)C4)[C@H]3CC[C@@]21C [Tibolone] | -8% | 0% | 4% | Q4 | 0% | – | – | – | – | – | – | –
3 | CC1(C)S[C@@H]2[C@H](NC(=O)[C@H](C(=O)O)c3ccsc3)C(=O)N2[C@H]1C(=O)O [Ticarcillin Disodium] | -22% | 0% | 7% | Q4 | 0% | – | – | – | – | – | – | –
4 | CN(C)c1cc(NC(=O)CNC(C)(C)C)c(O)c2c1C[C@H]1C[C@H]3[C@H](N(C)C)C(O)=C(C(N)=O)C(=O)[C@@]3(O)C(O)=C1C2=O [Tigecycline] | 7% | 0% | 13% | Q4 | 0% | – | – | – | – | – | – | –
5 | CCN(CC)CCOc1ccc2c(c1)C(=O)c1cc(OCCN(CC)CC)ccc1-2 [Tilorone] | – | – | – | – | – | -21% | 1% | 60% | Q1 | 0% | – | –
6 | CC(C)(C)NC[C@H](O)COc1nsnc1N1CCOCC1 [Timolol Maleate] | – | 0% | – | Q4 | 0% | – | – | – | – | – | −4% | 19%
7 | CC(C)(C)NC[C@H](O)COc1nsnc1N1CCOCC1 [Timolol] | – | 0% | – | Q4 | 1% | – | – | – | – | – | 11% | −7%
8 | O=C(O)C1CSCN1 (centres unmarked) [Timonacic] | -38% | 0% | 19% | Q4 | 0% | – | – | – | – | – | – | –
9 | CCS(=O)(=O)CCn1c([N+](=O)[O-])cnc1C [Tinidazole] | 2% | 1% | 14% | Q4 | 0% | – | – | – | – | – | – | –
10 | CC(S)C(=O)NCC(=O)O (centres unmarked) [Tiopronin] | -8% | 0% | 6% | Q4 | 1% | – | – | – | – | – | – | –
11 | C[N+]1(C)[C@@H]2C[C@@H](OC(=O)C(O)(c3cccs3)c3cccs3)C[C@H]1[C@@H]1O[C@@H]12 [Tiotropium] | -32% | 0% | -1% | Q4 | 0% | – | – | – | – | – | – | –
12 | O=C(O)Cc1cc(I)c(Oc2ccc(O)c(I)c2)c(I)c1 [Tiratricol] | -51% | 0% | 13% | Q4 | 1% | – | – | – | – | – | – | –
13 | NC[C@H]1O[C@H](O[C@H]2[C@H](O)[C@@H](O[C@H]3O[C@H](CO)[C@@H](O)[C@H](N)[C@H]3O)[C@H](N)C[C@@H]2N)[C@H](N)C[C@@H]1O [Tobramycin] | 1% | 0% | 24% | Q4 | 1% | – | – | – | – | – | – | –
14 | Cc1cccc(C)c1NC(=O)C(C)N (centres unmarked) [Tocainide] | -25% | 0% | 0% | Q4 | 1% | – | – | – | – | – | – | –
15 | CCOC(=O)NNc1nncc2ccccc12 [Todralazine Hydrochloride] | 0% | 0% | 19% | Q4 | 1% | – | – | – | – | – | – | –
16 | c1ccc(CC2=NCCN2)cc1 [Tolazoline, Priscoline] | – | 0% | – | Q4 | 0% | – | – | – | – | – | −90% | 17%
